The text below walks through data of patent US12433870B2, “Supramolecular photoprotection of a photosensitizer” (Northwestern University, priority 2019, dated 2025).

Entries after “also recorded” stand apart in the source; their conditions may differ.

For data set [1], the system named is ExBox^4+ and DPP. Nature of the data set: 1H NMR titration, host-guest association constant (1:1 binding model). Particulars: 1H NMR titration in (CD3)2CO, 298 K. The method, then: The synthesis of ExBox•4Cl was carried out following our previously reported procedure^17. Solid DPP (0.46 mg, […]) was dissolved in Me2CO (1 mM, 1 mL) and added to a solution of ExBox•4Cl in H2O (1.0 mM, 1 mL). The mixture was sonicated for 15 min, Me2CO was removed in vacuum, and the H2O portion was passed through a 0.45-μm filter to yield 1:1 ExBox^4+⊃DPP complex (FIG. 1A) in water. Upon complex formation, the aqueous solution color changed to light orange-pink or tangerine. […] The resonances for the α and CH2 protons of ExBox^4+ were affected only slightly by the shielding effect of DPP as they are located at the corners and display only slight shifts in their […] spectra. This pattern is in excellent agreement with the inclusion of DPP inside ExBox^4+ in solution. […] The association constant (Ka) obtained from 1:1 binding model was calculated to be 12600±300 M^−1 from the chemical shifts of […] titrations experiments (FIG. 1B-1C) between ExBox^4+ and DPP in (CD3)2CO.
The ^1H NMR (298 K, 500 MHz) titration was performed by adding small volumes of a solution of DPP in Me2CO-d6 to a solution of ExBox•4PF6 in Me2CO-d6. […]
(CD3)2CO stock solutions of ExBox^4+ (0.4 mM) and DPP (5.4 mM) were prepared. […] The NMR spectra were recorded after each addition of DPP solution. […]

The test system of data set [2] is A2780 cells. Description: Intracellular ROS generation (DCFDA assay). In kind it is cell-based, human. Particulars: 10 μM/0.156 J cm^−2 light dose, compared with dark or untreated cells. The protocol:
Intracellular ROS generation assay was performed using DCFDA Cellular ROS Detection Assay Kit (Abeam), according to the manufacturer's instructions. Briefly, A2780 cells (2.5×10^5 cells/mL, 100 μL) were seeded in each well of a black 96-well plate and incubated with PBS solution of ExBox^4+⊃DPP for 12 h. After incubation, cells were washed with PBS and incubated with 2′,7′-dichlorofluorescin diacetate (DCFDA) (20 μM) for 45 min in the dark. Then the cells were rinsed with PBS, irradiated and fluorescence was measured (λex=485 and λem=535 nm) using a microplate reader. Control experiments with PBS solution of ExBox^4+⊃DPP treated cells and untreated cells, both with and without irradiation were performed.

The nature of data set [3]: Solubility in water / PBS buffer. Particulars: H2O. It is filed as physicochemical.
A short description of data set [4]: Detection of singlet oxygen (ADPA chemical method, methylene blue reference). In kind it is physicochemical. The conditions noted are these: H2O, 20 μM, 630 nm, 50 mW, 20 min. The method, then: Singlet oxygen (^1O2) quantum-yield measurements were conducted by a chemical method. The disodium salt of 9.10-anthracenedipropionic acid (ADPA) was used as singlet oxygen detection reagent with methylene blue used as a reference (Φt=0.53). In this experiment, ADPA (0.1 μmol) was added to the H2O solution of ExBox^4+⊃DPP (20 μM) with a laser irradiation (630 nm, 50 mW) for 20 min, followed by quantification of ^1O2 by the absorbance intensity change (UV-3600 Shimadzu spectrophotometer) at 380 nm of ADPA. The calculation of ^1O2 quantum yield is based on the equality ΦΔ=(ΔAs/[…])Φr. ΔAs is the absorption change of detected photosensitizer, ΔAr is the absorption change of referenced photosensitizer and Φ^r is the quantum yield of singlet oxygen of referenced photosensitizer (methylene blue).
(§1) ADPA (0.1 μmol) was added to the H2O solution of DPPH2^+ (20 μM) with a laser irradiation (630 nm, 50 mW) for 20 min, followed by quantification of the ^1O2 by the absorbance intensity change (UV-3600 Shimadzu spectrophotometer) at 380 nm of ADPA. The calculation of the ^1O2 quantum yield is based on the equality ΦΔ=(ΔAs/ΔAr)Φr where ΔAs is the absorption change of detected photosensitizer, ΔAr is the absorption change of referenced photosensitizer and Φr is the quantum yield of singlet oxygen of referenced photosensitizer (methylene blue). Measured ^1O2 quantum yield of DPPH2^2+ is 0.38 in H2O.
as §1, with “acetone” for “H2O”, “DPP” for “DPPH2^+”, “DPP” for “DPPH2^2+”, “0.43” for “0.38”, “acetone.” for “H2O.”

As for `C1=Cc2nc1cc1ccc([nH]1)c(-c1ccccc1)c1nc(cc3ccc([nH]3)c2-c2ccccc2)C=C1.c1cc2ccc1C[n+]1ccc(cc1)-c1ccc(cc1)-c1cc[n+](cc1)Cc1ccc(cc1)C[n+]1ccc(cc1)-c1ccc(cc1)-c1cc[n+](cc1)C2` [ExBox^4+⊃DPP], the “association constant (Ka)” value in data set [1] worked out at 12600 ± 300 M⁻¹. Also, the “increase in intracellular ROS” value in data set [2] is given as 20 fold. Also, in data set [3], the “solubility in H2O” value is listed as “soluble in H2O”. For the same molecule, the “singlet oxygen generation upon photoexcitation” value in data set [4] is listed as “did not generate any singlet oxygen; also recorded: ^1O2 was not generated”.
